One experiment addresses Bcl-2-like protein 1 (Homo sapiens, UniProt Q07817). Nature of the experiment: Fluorescence Resonance Energy Transfer Assay (FRET): The assays were performed in black flat-bottom 384-well plates. The final assay volume was 55 μl prepared from additions of Biotin-Bcl-xL (Bcl-xL: GENBANK® Accession No. Q07817), fluoresceinated 18-mer BIM peptide (NH2-[…]-[FAM]) (SEQ ID NO: 1), Streptavidin-Terbium FRET detection reagent, and test compounds in assay buffer consisting of 20 mM Sodium Phosphate, 1 mM EDTA, 50 mM NaCl, and 0.05% Pluronic Acid. The reaction was incubated at room temperature for 60 minutes. After 60 minutes, 5 μL of Streptavidin-Terbium FRET detection reagent (Perkin Elmer) was added to the reaction mixture and incubated at room temperature in the dark for 30 mins. The FRET signal generated by the reaction was detected on the Envision Plate Reader Inhibition data were calculated from FRET values generated by the no protein control reactions for 100% inhibition and vehicle-only reactions for 0% inhibition. The final concentration of reagents in the assay was 10 nM Bcl-xL, 5 nM fluo.

Experiment [1] deals with Apoptosis regulator Bcl-2 (Homo sapiens, UniProt P10415). Nature of the experiment: Fluorescence Polarization Assay (FPA): The assays were performed in black flat-bottom 384-well plates. The final assay volume was 50 μl prepared from additions of Gst-Bcl-2 (Bcl-2: GENBANK® Accession No. P10415), fluoresceinated 18-mer BIM peptide (NH2-[…]-[FAM]) (SEQ ID NO: 1), and test compounds in assay buffer consisting of 20 mM Sodium Phosphate, 1 mM EDTA, 50 mM NaCl, and 0.05% Pluronic Acid. The reaction was incubated at room temperature for 60 minutes and fluorescence polarization of the reaction was detected on the LJL Plate Reader. Inhibition data were calculated from mP values generated by the no protein control reactions for 100% inhibition and vehicle-only reactions for 0% inhibition. The final concentrations of reagents in the assay were 4.9 nM BCL-2, 5 nM fluoresceinated 18-mer BIM peptide and 1% DMSO.
Chain of Apoptosis regulator Bcl-2 (P10415 whole entry): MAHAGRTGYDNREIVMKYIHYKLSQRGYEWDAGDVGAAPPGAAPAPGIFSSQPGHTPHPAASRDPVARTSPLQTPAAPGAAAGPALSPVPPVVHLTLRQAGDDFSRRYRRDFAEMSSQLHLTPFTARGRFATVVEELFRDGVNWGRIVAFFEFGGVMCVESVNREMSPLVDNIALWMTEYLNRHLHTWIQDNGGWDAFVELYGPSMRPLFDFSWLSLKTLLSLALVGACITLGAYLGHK

Chain of Bcl-2-like protein 1 (Q07817 whole entry): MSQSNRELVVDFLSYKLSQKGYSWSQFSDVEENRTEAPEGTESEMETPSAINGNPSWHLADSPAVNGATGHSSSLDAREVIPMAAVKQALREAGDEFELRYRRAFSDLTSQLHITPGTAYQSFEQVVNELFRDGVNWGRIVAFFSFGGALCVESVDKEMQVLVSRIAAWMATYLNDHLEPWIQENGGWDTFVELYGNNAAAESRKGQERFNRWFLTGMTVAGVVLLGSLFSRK

As usually defined, the IC50 is the concentration at which inhibition is half-maximal. As to `CCCCN(CCCC)C(=O)c1cn(CCCN(C)C)c(-c2ccc(C(=O)NS(=O)(=O)c3ccc4ccccc4c3)cc2C(=O)N2CCc3ccccc3C2)n1`, the IC50 on Bcl-2-like protein 1 is 30 nM; in experiment [1], 200 nM.

For the compound `Cc1c(Cl)c(C(=O)NCc2ccc(-c3ccc(CC(=O)O)cc3)cc2)nn1-c1ccc(C(=O)NS(=O)(=O)c2ccc3c(c2)CCN3Cc2ccc(Cl)c(Cl)c2)cc1C(=O)N1CCc2ccccc2C1`, the IC50 on Bcl-2-like protein 1 was 8070 nM; in experiment [1], 50 nM.

Consider `CCCCN(CCCC)C(=O)c1cn(CCN2CCOCC2)c(-c2ccc(C(=O)NS(=O)(=O)c3ccc4ccccc4c3)cc2C(=O)N2Cc3ccccc3C[C@H]2CO)n1`, for which the figures for the IC50 (at Bcl-2-like protein 1; in experiment [1]) were 60 nM and 120 nM, respectively.

The values above are taken from ChEMBL document CHEMBL3886736, “Substituted sulfonamides useful as antiapoptotic Bcl inhibitors” (2016).
